Source: ChEMBL document CHEMBL1201862, “PubChem BioAssay data set” (2004)
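Protocol summary: plate cells (96-well), add compound at 5 concentrations, incubate 48 h, interpolate endpoints linearly. Here, GI50 denotes the concentration required for 50% inhibition of growth.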 Calls of active or inactive are those of the source. No stated cut-off is given here; in the data, active = GI50 up to about 1.1 µM and inactive = higher. Where a SMILES comes first, the peptide text is derived from it. The star is where a group is joined. Cbz = O=C(OCc1ccccc1)*

What was measured:
Experiment in all cases: growth of human tumour cells (NCI), 48 h
CCRF-CEM = test system: CCRF-CEM
NCI-H226 = test system: NCI-H226
CAKI-1 = test system: CAKI-1
K562 = test system: K562
HOP-62 = test system: HOP-62
SF-268 = test system: SF-268
U-251 = test system: U-251
COLO 205 = test system: COLO 205
NCI/ADR-RES = test system: NCI/ADR-RES
UO-31 = test system: UO-31
SK-MEL-5 = test system: SK-MEL-5
786-0 = test system: 786-0
M14 = test system: M14
SK-OV-3 = test system: SK-OV-3
EKVX = test system: EKVX
NCI-H460 = test system: NCI-H460
RXF 393 = test system: RXF 393
SF-539 = test system: SF-539
OVCAR-5 = test system: OVCAR-5
Malme-3M = test system: Malme-3M

## COC(OC)[C@@H]1OC[C@H](n2cnc3c(N)ncnc32)[C@H]1O
CCRF-CEM
  GI50: > 100 µM (inactive)
NCI-H226
  GI50: > 100 µM (inactive)
CAKI-1
  GI50: > 100 µM (inactive)
K562
  GI50: > 100 µM (inactive)
HOP-62
  GI50: > 100 µM (inactive)
SF-268
  GI50: > 100 µM (inactive)
U-251
  GI50: > 100 µM (inactive)
COLO 205
  GI50: > 100 µM (inactive)
NCI/ADR-RES
  GI50: > 100 µM (inactive)
UO-31
  GI50: > 100 µM (inactive)
SK-MEL-5
  GI50: > 100 µM (inactive)
786-0
  GI50: > 100 µM (inactive)
M14
  GI50: > 100 µM (inactive)
SK-OV-3
  GI50: > 100 µM (inactive)
EKVX
  GI50: > 100 µM (inactive)
NCI-H460
  GI50: > 100 µM (inactive)
RXF 393
  GI50: > 100 µM (inactive)
SF-539
  GI50: > 100 µM (inactive)
OVCAR-5
  GI50: > 100 µM (inactive)

## O=C1CCCCC/C1=C\c1ccc([N+](=O)[O-])cc1
CCRF-CEM
  GI50: 26.7 µM (inactive)
CAKI-1
  GI50: 22.7 µM (inactive)
K562
  GI50: 50 µM (inactive)
Malme-3M
  GI50: 43.7 µM (inactive)
HOP-62
  GI50: 38.5 µM (inactive)
SF-268
  GI50: 30.5 µM (inactive)
U-251
  GI50: 31.3 µM (inactive)
COLO 205
  GI50: 24 µM (inactive)
NCI/ADR-RES
  GI50: 37.8 µM (inactive)
UO-31
  GI50: 24.5 µM (inactive)
SK-MEL-5
  GI50: 20.1 µM (inactive)
786-0
  GI50: 19.7 µM (inactive)
M14
  GI50: 32.1 µM (inactive)
SK-OV-3
  GI50: 36.1 µM (inactive)
EKVX
  GI50: 35.3 µM (inactive)
NCI-H460
  GI50: 20.1 µM (inactive)
RXF 393
  GI50: 33.4 µM (inactive)
SF-539
  GI50: 26.5 µM (inactive)
OVCAR-5
  GI50: 31.4 µM (inactive)

## C1=N\CCN2CCN(CC/N=C\c3ccccc3OCc3cccc(n3)COc3ccccc3/1)CC2
CCRF-CEM
  GI50: 3.39 µM (inactive)
K562
  GI50: 2.48 µM (inactive)
Malme-3M
  GI50: 6.12 µM (inactive)
HOP-62
  GI50: 14.6 µM (inactive)
SF-268
  GI50: 2.15 µM (inactive)
U-251
  GI50: 2.26 µM (inactive)
COLO 205
  GI50: 19.6 µM (inactive)
NCI/ADR-RES
  GI50: 2.28 µM (inactive)
UO-31
  GI50: 13.8 µM (inactive)
786-0
  GI50: 5.13 µM (inactive)
M14
  GI50: 7.74 µM (inactive)
SK-OV-3
  GI50: 16.9 µM (inactive)
EKVX
  GI50: 13 µM (inactive)
NCI-H460
  GI50: 38.2 µM (inactive)
RXF 393
  GI50: 0.508 µM (active)
SF-539
  GI50: 3 µM (inactive)
OVCAR-5
  GI50: 9.18 µM (inactive)

## COC(=O)C(CC(C)C)NC(=O)C(CCCNC(=N)N)NC(=O)OCc1ccccc1 (stereo not drawn) (Cbz-Arg-Leu-OMe; configuration not given here)
CCRF-CEM
  GI50: > 100 µM (inactive)
NCI-H226
  GI50: > 100 µM (inactive)
CAKI-1
  GI50: > 100 µM (inactive)
K562
  GI50: > 100 µM (inactive)
Malme-3M
  GI50: > 100 µM (inactive)
HOP-62
  GI50: > 100 µM (inactive)
SF-268
  GI50: > 100 µM (inactive)
U-251
  GI50: > 100 µM (inactive)
COLO 205
  GI50: > 100 µM (inactive)
NCI/ADR-RES
  GI50: > 100 µM (inactive)
UO-31
  GI50: > 100 µM (inactive)
SK-MEL-5
  GI50: > 100 µM (inactive)
786-0
  GI50: > 100 µM (inactive)
M14
  GI50: > 100 µM (inactive)
SK-OV-3
  GI50: > 100 µM (inactive)
EKVX
  GI50: > 100 µM (inactive)
NCI-H460
  GI50: > 100 µM (inactive)
RXF 393
  GI50: > 100 µM (inactive)
OVCAR-5
  GI50: > 100 µM (inactive)

## CCCCn1cnc2c(SC)ncnc21
CAKI-1
  GI50: > 100 µM (inactive)
K562
  GI50: 44.8 µM (inactive)
Malme-3M
  GI50: > 100 µM (inactive)
HOP-62
  GI50: > 100 µM (inactive)
SF-268
  GI50: > 100 µM (inactive)
U-251
  GI50: > 100 µM (inactive)
COLO 205
  GI50: > 100 µM (inactive)
NCI/ADR-RES
  GI50: > 100 µM (inactive)
UO-31
  GI50: > 100 µM (inactive)
SK-MEL-5
  GI50: > 100 µM (inactive)
786-0
  GI50: > 100 µM (inactive)
M14
  GI50: > 100 µM (inactive)
SK-OV-3
  GI50: > 100 µM (inactive)
EKVX
  GI50: 41.7 µM (inactive)
NCI-H460
  GI50: > 100 µM (inactive)
RXF 393
  GI50: > 100 µM (inactive)
SF-539
  GI50: > 100 µM (inactive)
OVCAR-5
  GI50: > 100 µM (inactive)

## CC1(C)CC(=O)c2c(nc3c(ccc4ccccc43)c2-c2ccc(NC(=O)CCCC(=O)Nc3ccc(-c4c5c(nc6c4ccc4ccccc46)CC(C)(C)CC5=O)cc3)cc2)C1
CCRF-CEM
  GI50: > 100 µM (inactive)
NCI-H226
  GI50: > 100 µM (inactive)
CAKI-1
  GI50: > 100 µM (inactive)
K562
  GI50: > 100 µM (inactive)
HOP-62
  GI50: > 100 µM (inactive)
SF-268
  GI50: > 100 µM (inactive)
U-251
  GI50: > 100 µM (inactive)
COLO 205
  GI50: > 100 µM (inactive)
NCI/ADR-RES
  GI50: > 100 µM (inactive)
UO-31
  GI50: > 100 µM (inactive)
SK-MEL-5
  GI50: > 100 µM (inactive)
786-0
  GI50: > 100 µM (inactive)
M14
  GI50: > 100 µM (inactive)
SK-OV-3
  GI50: > 100 µM (inactive)
EKVX
  GI50: > 100 µM (inactive)
NCI-H460
  GI50: > 100 µM (inactive)
RXF 393
  GI50: > 100 µM (inactive)
SF-539
  GI50: > 100 µM (inactive)
OVCAR-5
  GI50: > 100 µM (inactive)

## O=C1/C(=C2\Sc3c(ccc(Cl)c3Cl)C2=O)Sc2c1ccc(Cl)c2Cl
CCRF-CEM
  GI50: > 100 µM (inactive)
NCI-H226
  GI50: > 100 µM (inactive)
CAKI-1
  GI50: > 100 µM (inactive)
K562
  GI50: > 100 µM (inactive)
Malme-3M
  GI50: > 100 µM (inactive)
HOP-62
  GI50: 12.6 µM (inactive)
SF-268
  GI50: > 100 µM (inactive)
U-251
  GI50: > 100 µM (inactive)
COLO 205
  GI50: > 100 µM (inactive)
NCI/ADR-RES
  GI50: > 100 µM (inactive)
UO-31
  GI50: > 100 µM (inactive)
SK-MEL-5
  GI50: > 100 µM (inactive)
786-0
  GI50: > 100 µM (inactive)
M14
  GI50: > 100 µM (inactive)
EKVX
  GI50: > 100 µM (inactive)
NCI-H460
  GI50: > 100 µM (inactive)
RXF 393
  GI50: 89.1 µM (inactive)
SF-539
  GI50: > 100 µM (inactive)
OVCAR-5
  GI50: > 100 µM (inactive)

## O=C1C(Cl)C2(CC(/C=C/c3ccccc3Cl)=NN2c2cccc(S(=O)(=O)O)c2)N1c1nc2ccccc2s1 (stereo not drawn)
CCRF-CEM
  GI50: 8.11 µM (inactive)
NCI-H226
  GI50: 30.2 µM (inactive)
CAKI-1
  GI50: 17.2 µM (inactive)
K562
  GI50: 2.11 µM (inactive)
Malme-3M
  GI50: 27 µM (inactive)
SF-268
  GI50: 66.4 µM (inactive)
U-251
  GI50: 41.7 µM (inactive)
COLO 205
  GI50: > 100 µM (inactive)
NCI/ADR-RES
  GI50: > 100 µM (inactive)
UO-31
  GI50: 4.82 µM (inactive)
SK-MEL-5
  GI50: 21.4 µM (inactive)
786-0
  GI50: 21.9 µM (inactive)
M14
  GI50: 72.6 µM (inactive)
EKVX
  GI50: 49 µM (inactive)
NCI-H460
  GI50: 63.5 µM (inactive)
RXF 393
  GI50: 42.8 µM (inactive)
SF-539
  GI50: 7.67 µM (inactive)
OVCAR-5
  GI50: > 100 µM (inactive)

## CC(=O)NC(Cc1ccc(O)cc1)C(=O)O (stereo not drawn)
NCI-H226
  GI50: > 100 µM (inactive)
CAKI-1
  GI50: > 100 µM (inactive)
K562
  GI50: > 100 µM (inactive)
Malme-3M
  GI50: > 100 µM (inactive)
HOP-62
  GI50: > 100 µM (inactive)
SF-268
  GI50: > 100 µM (inactive)
U-251
  GI50: > 100 µM (inactive)
COLO 205
  GI50: > 100 µM (inactive)
NCI/ADR-RES
  GI50: > 100 µM (inactive)
UO-31
  GI50: > 100 µM (inactive)
SK-MEL-5
  GI50: > 100 µM (inactive)
786-0
  GI50: > 100 µM (inactive)
M14
  GI50: > 100 µM (inactive)
SK-OV-3
  GI50: > 100 µM (inactive)
EKVX
  GI50: > 100 µM (inactive)
NCI-H460
  GI50: > 100 µM (inactive)
RXF 393
  GI50: > 100 µM (inactive)
OVCAR-5
  GI50: > 100 µM (inactive)

## CN(O)C(=O)CCC(NC(=O)CCC(N)C(=O)O)C(=O)NCC(=O)O (stereo not drawn)
CCRF-CEM
  GI50: > 100 µM (inactive)
NCI-H226
  GI50: > 100 µM (inactive)
CAKI-1
  GI50: > 100 µM (inactive)
K562
  GI50: > 100 µM (inactive)
HOP-62
  GI50: > 100 µM (inactive)
SF-268
  GI50: > 100 µM (inactive)
U-251
  GI50: > 100 µM (inactive)
COLO 205
  GI50: > 100 µM (inactive)
NCI/ADR-RES
  GI50: > 100 µM (inactive)
UO-31
  GI50: > 100 µM (inactive)
SK-MEL-5
  GI50: > 100 µM (inactive)
786-0
  GI50: > 100 µM (inactive)
M14
  GI50: > 100 µM (inactive)
SK-OV-3
  GI50: > 100 µM (inactive)
EKVX
  GI50: > 100 µM (inactive)
NCI-H460
  GI50: > 100 µM (inactive)
RXF 393
  GI50: > 100 µM (inactive)
SF-539
  GI50: > 100 µM (inactive)
OVCAR-5
  GI50: > 100 µM (inactive)

## CC(C)(CO)CNc1cc(Cl)nc(N)n1
CCRF-CEM
  GI50: > 100 µM (inactive)
NCI-H226
  GI50: > 100 µM (inactive)
CAKI-1
  GI50: > 100 µM (inactive)
K562
  GI50: > 100 µM (inactive)
Malme-3M
  GI50: > 100 µM (inactive)
HOP-62
  GI50: > 100 µM (inactive)
SF-268
  GI50: > 100 µM (inactive)
U-251
  GI50: > 100 µM (inactive)
COLO 205
  GI50: > 100 µM (inactive)
NCI/ADR-RES
  GI50: > 100 µM (inactive)
UO-31
  GI50: > 100 µM (inactive)
SK-MEL-5
  GI50: > 100 µM (inactive)
786-0
  GI50: > 100 µM (inactive)
EKVX
  GI50: > 100 µM (inactive)
NCI-H460
  GI50: > 100 µM (inactive)
RXF 393
  GI50: > 100 µM (inactive)
SF-539
  GI50: > 100 µM (inactive)
OVCAR-5
  GI50: > 100 µM (inactive)
